Measured values from US5409933A, “Quinoline derivatives and processes for preparing the same” (priority 1993, dated 1995).
Counter-ions that a name gives are not always drawn. Like-named read-outs stand apart in the source and are kept apart here.

What was measured:
Test in all cases: In Vitro Anti-Bacterial Activity Test (MIC, agar dilution)
Type in all cases: cell-based
Salmonella typhimurium = details: Salmonella enterica
How it was run: (§1)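 Read-out is visual growth inhibition on compound-containing Muller-Hinton agar, giving the MIC. Bacteria (10^7 C.F.U./ml) incubate 18 hours at 37° C.; ciprofloxacin is included as comparator drug.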

Escherichia coli DC0 = details: Muller-Hinton agar, 37° C., 18 hours, read-out: MIC
How it was run: as §1

[1] = system: Enterobacter cloacae 1321E; details: Enterobacter cloacae 1321E; Muller-Hinton agar, 37° C., 18 hours; read-out: MIC
How it was run: as §1

Escherichia coli DC2 = details: Escherichia coli, DC2, 18 h
How it was run: as §1

Escherichia coli 078 = system: Escherichia coli 078
How it was run: as §1

Klebsiella oxytoca 1082E = details: Klebsiella oxytoca 1082E; Muller-Hinton agar, 37° C., 18 hours; read-out: MIC
How it was run: as §1

[2] = system: Klebsiella aerogenes 1522E; details: Klebsiella aerogenes, 1522E, 18 h
How it was run: as §1

Escherichia coli TEM = details: Escherichia coli, 18 h, Muller-Hinton agar, 37° C.
How it was run: (§2)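 MIC was determined by agar dilution on Mueller-Hinton agar. Each strain was inoculated at 10^7 C.F.U./ml, and growth was observed after 18 hours at 37° C, with ciprofloxacin as control agent.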

[3] = system: Streptococcus pyogenes 308A; details: Muller-Hinton agar, 37° C., 18 hours, read-out: MIC
How it was run: as §1

[4] = system: Pseudomonas aeruginosa 1771M; details: Pseudomonas aeruginosa, 1771M, 18 h, Muller-Hinton agar, 37° C.
How it was run: as §1

[5] = system: Staphylococcus aureus 285; details: Staphylococcus aureus, 285, 18 h, Staphylococcus aureus 285; Muller-Hinton agar, 37° C., 18 hours; read-out: MIC
How it was run: as §1

[6] = system: Pseudomonas aeruginosa 1592E; details: Muller-Hinton agar, 37° C., 18 hours, read-out: MIC
How it was run: as §1

[7] = system: Streptococcus pyogenes 77A
How it was run: as §1

[8] = system: Pseudomonas aeruginosa 9027; details: Muller-Hinton agar, 37° C., 18 hours, read-out: MIC
How it was run: as §1

[9] = system: Pseudomonas aeruginosa 1771; details: Pseudomonas aeruginosa 1771; Muller-Hinton agar, 37° C., 18 hours; read-out: MIC
How it was run: as §1

[10] = system: Staphylococcus aureus 503; details: Staphylococcus aureus 503; Muller-Hinton agar, 37° C., 18 hours; read-out: MIC
How it was run: as §1

Enterobacter cloacae P99 = details: Enterobacter cloacae, P99, 18 h
How it was run: as §2

[11] = system: Staphylococcus aureus SG511; details: Staphylococcus aureus SG511; Muller-Hinton agar, 37° C., 18 hours; read-out: MIC
How it was run: as §1

[12] = system: Streptococcus faecium MD8b; details: Enterococcus faecium, Muller-Hinton agar, 37° C., 18 hours, read-out: MIC
How it was run: as §1

Escherichia coli 1507E = details: Muller-Hinton agar, 37° C.
How it was run: as §1

[13] = Salmonella typhimurium, Muller-Hinton agar, 37° C., 18 hours, read-out: MIC
[14] = Klebsiella aerogenes 1522E, Muller-Hinton agar, 37° C., 18 hours, read-out: MIC
[15] = Streptococcus pyogenes 77A, Muller-Hinton agar, 37° C., 18 hours, read-out: MIC
[16] = Escherichia coli 078, Muller-Hinton agar, 37° C., 18 hours, read-out: MIC

Row | Structure (SMILES) | MIC (Salmonella typhimurium; [13]) [µg/mL] | MIC (Escherichia coli DC0) [µg/mL] | MIC [1] [µg/mL] | MIC (Escherichia coli DC2) [µg/mL] | MIC (Escherichia coli 078; Escherichia coli, 078, 18 h) [µg/mL] | MIC (Klebsiella oxytoca 1082E) [µg/mL] | MIC [2, 14] [µg/mL] | MIC (Escherichia coli TEM) [µg/mL] | MIC [3] [µg/mL] | MIC [4] [µg/mL] | MIC [5] [µg/mL] | MIC [6] [µg/mL] | MIC [7, 15] [µg/mL] | MIC [8] [µg/mL] | MIC [9] [µg/mL] | MIC [10] [µg/mL] | MIC (Enterobacter cloacae P99) [µg/mL] | MIC [11] [µg/mL] | MIC [12] [µg/mL] | MIC (Escherichia coli 1507E; Escherichia coli, 1507E, 18 h) [µg/mL] | further results
1 | CCOC(=O)C(C(=O)OCC)C(=O)c1cn(C2CC2)c2c(Cl)c(N3CCC(NC)C3)c(F)cc2c1=O (centres unmarked) [Example 57, 1-cyclopropyl-6-fluoro-8-chloro-7-(3-methylaminopyrrolidin-1-yl)-3-(2,2-diethoxycarbonylacetyl)-1,4-dihydro-4-oxoquinoline hydrochloride] | 0.013 | 0.049 | 0.049 | 0.025 | 0.007 | 0.049 | 0.049 | 0.013 | 0.781 | 0.195 | 0.195 | 0.781 | 0.195 | 1.56 | 0.391 | 0.195 | 0.013 | 0.049 | 0.098 | 0.013 | 
2 | CC1CN(c2cc3c(cc2F)c(=O)c(C(=O)C[N+](=O)[O-])cn3-c2ccc(F)cc2F)CCN1 (centres unmarked) [Example 10, 1-(2,4-difluorophenyl)-6-fluoro-7-(3-methylpiperazin-1-yl)-3-(2-nitroacetyl)-1,4-dihydro-4-oxoquinoline hydrochloride] | 0.049 | 1.56 | 0.049 | 0.391 | 0.049 | 0.025 | 1.56 | 0.098 | 1.56 | 1.56 | 0.391 | 1.56 |  | 3.12 | 3.12 | 0.391 | 0.049 | 0.391 | 1.56 | 0.098 | MIC ([7]; Streptococcus pyogenes, 77A, 18 h): 0.781 µg/mL
3 | CCOC(=O)C(C(=O)OCC)C(=O)c1cn(C2CC2)c2c(Cl)c(N3CC4=C(CNC4)C3)c(F)cc2c1=O [Example 36, 1-cyclopropyl-6-fluoro-8-chloro-7-(3,7-diazabicyclo[3.3.0]oct-1,5-en-3-yl)-3-(2,2-diethoxycarbonylacetyl)-1,4-dihydro-4-oxoquinoline hydrochloride] | 0.025 | 0.195 | 0.025 | 0.049 | 0.007 | 0.007 | 0.025 | 0.025 | 0.391 | 0.195 | 0.049 | 0.781 | 0.098 | 1.56 | 0.781 | 0.049 | 0.025 | 0.025 | 0.195 | 0.025 | 
4 | C[C@@H]1CN(c2c(F)c(N)c3c(=O)c(C(=O)C[N+](=O)[O-])cn(C4CC4)c3c2F)C[C@H](C)N1 [Example 14, 1-cyclopropyl-5-amino-6,8-difluoro-7-(3,5-cis-dimethylpiperazin-1-yl)-3-(2-nitroacetyl)-1,4-dihydro-4-oxoquinoline hydrochloride] | < 0.002 | 0.098 | < 0.002 | 0.049 |  | < 0.002 | 0.025 | 0.007 | 1.56 | 0.195 | 0.098 | 0.781 | 0.195 | 0.781 | 0.391 | 0.049 | 0.007 | 0.098 | 0.391 | 0.013 | MIC (Escherichia coli 078; [16]): < 0.002 µg/mL
5 | CCOC(=O)C(C#N)C(=O)c1cn(C2CC2)c2c(Cl)c(N3CC4=C(CNC4)C3)c(F)cc2c1=O (centres unmarked) [Example 41, 1-cyclopropyl-6-fluoro-8-chloro-7-(3,7-diazabicyclo[3.3.0]oct-1,5-en-3-yl)-3-(2-cyano-2-ethoxycarbonylacetyl)-1,4-dihydro-4-oxoquinoline hydrochloride] | 0.098 | 3.12 | 0.049 | 1.56 | 0.049 | 0.049 |  | 0.195 | 25 | 1.56 | 6.25 | 3.12 | 12.5 | 6.25 | 3.12 | 6.25 | 0.098 | 3.12 | 25 | 0.391 | MIC [2]: 0.195 µg/mL
6 | NCC1CCN(c2c(F)cc3c(=O)c(C(=O)C[N+](=O)[O-])cn(C4CC4)c3c2Cl)C1 (centres unmarked) [Example 53, 1-cyclopropyl-6-fluoro-8-chloro-7-(3-aminomethylpyrrolidin-1-yl)-3-(2-nitroacetyl)-1,4-dihydro-4-oxoquinoline hydrochloride] | 0.013 | 0.195 | < 0.002 | 0.049 |  | < 0.002 | 0.013 | 0.013 | 0.098 | 0.195 | 0.007 | 0.391 | 0.049 | 0.781 | 0.781 | 0.013 | 0.013 | 0.013 | 0.049 | 0.025 | MIC (Escherichia coli 078; [16]): < 0.002 µg/mL
7 | CCOC(=O)C(C(=O)OCC)C(=O)c1cn(C2CC2)c2cc(N3CCNCC3)c(F)cc2c1=O [Example 18, 1-cyclopropyl-6-fluoro-7-(piperazin-1-yl)-3-(2,2-diethoxycarbonylacetyl)-1,4-dihydro-4-oxoquinoline hydrochloride] |  | 0.195 | < 0.002 | 0.098 |  | 0.004 | 0.013 | 0.007 | 3.12 | 0.049 | 0.391 | 0.391 | 0.781 | 0.781 | 0.195 | 0.391 | < 0.002 | 0.195 | 0.781 |  | MIC (Salmonella typhimurium; TYPHIMURIUM, 18 h): 0.007 µg/mL; MIC (Escherichia coli 078; [16]): 0.004 µg/mL; MIC (Escherichia coli 1507E; 18 hours, read-out: MIC): 0.004 µg/mL
